Earlier results on one molecule are cited in publication PMC5941726, “Evaluating Hepatobiliary Transport with ^18F-Labeled Bile Acids: The Effect of Radiolabel Position and Bile Acid Structure on Radiosynthesis and In Vitro and In Vivo Performance” (Contrast Media & Molecular Imaging, 2018).

What all share (settings): Ki calculated from IC50-values extracted from literature; cited from earlier work
Data set [1] addresses T1, NTCP (Homo sapiens, UniProt Q14973).
T1 construct: host or cells: Chinese Hamster Ovary (CHO) cells
T1 sequence (Q14973 1-349): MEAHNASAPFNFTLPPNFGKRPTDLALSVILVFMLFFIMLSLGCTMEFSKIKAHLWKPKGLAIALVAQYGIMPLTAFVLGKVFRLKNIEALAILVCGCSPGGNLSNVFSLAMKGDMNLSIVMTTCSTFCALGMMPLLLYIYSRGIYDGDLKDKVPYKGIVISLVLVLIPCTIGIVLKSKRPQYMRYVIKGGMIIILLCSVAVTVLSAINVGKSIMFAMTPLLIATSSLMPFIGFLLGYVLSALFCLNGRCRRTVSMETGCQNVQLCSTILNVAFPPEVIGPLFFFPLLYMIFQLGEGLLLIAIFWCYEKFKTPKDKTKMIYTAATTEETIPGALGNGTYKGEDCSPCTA
Also noted: method as in PMID 28273180.

The target in data set [2] is BSEP (Homo sapiens, UniProt O95342). Further details: purchased Pharmtox; method as in PMID 28273180.
Sequence of BSEP (O95342 whole entry, species assumed): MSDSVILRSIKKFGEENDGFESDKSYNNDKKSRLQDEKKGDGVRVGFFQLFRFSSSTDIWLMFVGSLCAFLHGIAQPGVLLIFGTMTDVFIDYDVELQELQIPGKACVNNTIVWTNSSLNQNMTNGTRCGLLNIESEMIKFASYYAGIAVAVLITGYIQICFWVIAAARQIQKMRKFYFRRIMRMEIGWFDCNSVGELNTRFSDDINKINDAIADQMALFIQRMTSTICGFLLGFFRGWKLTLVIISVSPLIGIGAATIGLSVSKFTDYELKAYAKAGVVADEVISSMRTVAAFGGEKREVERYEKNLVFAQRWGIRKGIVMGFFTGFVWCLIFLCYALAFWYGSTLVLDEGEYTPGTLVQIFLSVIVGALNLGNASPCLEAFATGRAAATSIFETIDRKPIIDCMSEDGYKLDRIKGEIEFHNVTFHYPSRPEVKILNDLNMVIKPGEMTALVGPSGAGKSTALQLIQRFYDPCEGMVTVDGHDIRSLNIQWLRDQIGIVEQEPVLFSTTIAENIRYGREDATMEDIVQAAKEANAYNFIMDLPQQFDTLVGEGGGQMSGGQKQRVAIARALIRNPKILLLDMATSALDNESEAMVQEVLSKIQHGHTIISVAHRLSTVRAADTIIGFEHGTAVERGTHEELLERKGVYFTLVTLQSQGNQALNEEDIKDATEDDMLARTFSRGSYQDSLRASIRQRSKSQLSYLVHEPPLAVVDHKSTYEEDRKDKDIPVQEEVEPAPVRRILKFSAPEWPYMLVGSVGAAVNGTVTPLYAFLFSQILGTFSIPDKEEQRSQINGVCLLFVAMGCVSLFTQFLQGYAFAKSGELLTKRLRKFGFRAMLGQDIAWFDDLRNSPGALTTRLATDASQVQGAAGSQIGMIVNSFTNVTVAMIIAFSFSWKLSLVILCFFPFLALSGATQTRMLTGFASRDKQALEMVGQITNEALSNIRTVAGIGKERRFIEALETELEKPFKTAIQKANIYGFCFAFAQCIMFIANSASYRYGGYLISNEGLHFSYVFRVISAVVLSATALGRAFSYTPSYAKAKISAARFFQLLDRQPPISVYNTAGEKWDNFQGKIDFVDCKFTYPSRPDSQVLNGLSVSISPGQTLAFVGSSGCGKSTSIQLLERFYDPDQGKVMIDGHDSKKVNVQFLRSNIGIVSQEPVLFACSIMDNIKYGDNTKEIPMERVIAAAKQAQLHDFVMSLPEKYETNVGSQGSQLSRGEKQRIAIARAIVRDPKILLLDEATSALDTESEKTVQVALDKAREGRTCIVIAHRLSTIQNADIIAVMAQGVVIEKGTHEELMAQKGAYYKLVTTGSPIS
The target of data set [3] is T2, OATP1B1 (Homo sapiens, UniProt Q9Y6L6).
T2 sequence (Q9Y6L6 1-691): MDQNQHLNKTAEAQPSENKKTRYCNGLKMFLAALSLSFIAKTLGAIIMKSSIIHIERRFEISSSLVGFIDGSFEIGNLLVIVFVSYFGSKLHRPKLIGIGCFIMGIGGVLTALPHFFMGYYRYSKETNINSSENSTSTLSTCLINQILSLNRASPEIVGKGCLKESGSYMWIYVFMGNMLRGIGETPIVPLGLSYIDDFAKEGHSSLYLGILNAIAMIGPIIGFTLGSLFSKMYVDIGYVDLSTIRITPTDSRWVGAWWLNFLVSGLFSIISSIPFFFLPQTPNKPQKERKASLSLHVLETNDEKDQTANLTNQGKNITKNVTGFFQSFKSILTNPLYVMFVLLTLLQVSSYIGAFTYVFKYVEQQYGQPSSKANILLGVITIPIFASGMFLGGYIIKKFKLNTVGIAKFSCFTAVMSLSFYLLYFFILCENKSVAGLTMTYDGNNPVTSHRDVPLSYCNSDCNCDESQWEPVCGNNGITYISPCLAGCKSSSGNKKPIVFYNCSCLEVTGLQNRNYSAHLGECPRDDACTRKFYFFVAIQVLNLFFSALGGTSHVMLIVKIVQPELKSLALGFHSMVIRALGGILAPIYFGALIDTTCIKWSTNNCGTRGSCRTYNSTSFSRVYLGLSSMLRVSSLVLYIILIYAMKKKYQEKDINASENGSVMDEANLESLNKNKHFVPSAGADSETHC
Also noted: host or cells: Human Embryonic Kidney (HEK) cells; method as in PMID 28273180.

As to `C[C@H](CCC(=O)O)[C@H]1CC[C@H]2[C@@H]3[C@H](O)C[C@@H]4C[C@@H](F)CC[C@]4(C)[C@H]3C[C@H](O)[C@]12C` [3βFCA], the Ki was 6.18 ± 0.59 µM in data set [1], 216 ± 53 µM in data set [2] and 9.67 ± 0.83 µM in data set [3].

The Ki is a dissociation constant, usually derived from enzyme kinetics or from competition with a known ligand.
